These results are taken from ChEMBL document CHEMBL3044600 (Biochem Syst Ecol, 2008).

Each structure is given as a SMILES string. ≈ marks a conversion by molar mass, not a printed value. Calls of active or inactive are those of the source. No cut-off for these calls is given here.

Series [1] can be described thus: Toxicity against Cricetulus griseus CHO (Chinese hamster ovary) cell by MTT assay. The series is classed as cell-based. The conditions noted are these: CHO cells.
In series [2] the test system is Spodoptera littoralis. Briefly: Antifeedant activity against Spodoptera littoralis L6 larvae assessed as biomass gain orally dosed with 40 ug after 72 hr relative to untreated control. The series is classed as functional.
For series [3], the system named is Spodoptera littoralis. Briefly: Antifeedant activity against Spodoptera littoralis L6 larvae assessed as food consumption level orally dosed with 40 ug after 72 hr relative to untreated control. The series is classed as functional.
A further series concerns Rhopalosiphum padi. Put plainly: Antifeedant activity against Rhopalosiphum padi adults fed on compound treated Hordeum vulgare annuum leaves assessed as feeding level at 50 ug/cm2 (reference value: 47 to 64%). The series is classed as functional.
The next series concerns Myzus persicae. Briefly: Antifeedant activity against Myzus persicae (green peach aphid) adults fed on compound treated […] annuum leaves assessed as feeding level at 50 ug/cm2 (reference value: 43 to 70%). The series is classed as functional.
In series [4] the test system is Leptinotarsa decemlineata. Put plainly: Antifeedant activity against Leptinotarsa decemlineata adults fed on compound treated Capsicum annuum leaves assessed as inhibition of feeding. The series is classed as functional, organism-based.
The subject of series [5] is Spodoptera littoralis. Briefly: Antifeedant activity against Spodoptera littoralis sixth-instar larvae fed on compound treated Solanum tuberosum leaves assessed as inhibition of feeding. The series is classed as functional, organism-based.
Series [6] concerns Lactuca sativa. Briefly: Phytotoxicity against Lactuca sativa var. Carrascoy (lettuce) assessed as inhibition of radicle length at 50 ug/cm2 after 24 to 144 hr. The series is classed as functional.
In series [7] the test system is Lactuca sativa. Briefly: Phytotoxicity against Lactuca sativa var. Carrascoy (lettuce) assessed as inhibition of seed germination at 50 ug/cm2 after 48 hr. The series is classed as functional, organism-based.
Series [8] relates to Lactuca sativa. Briefly: Phytotoxicity against Lactuca sativa var. Carrascoy (lettuce) assessed as inhibition of seed germination at 50 ug/cm2 after 24 hr. The series is classed as functional, organism-based.
Series [9] can be described thus: Toxicity against Spodoptera frugiperda (fall armyworm) Sf9 cells by MTT assay. The series is classed as cell-based.
Series [10] has as its system Lactuca sativa. Briefly: Phytotoxicity against Lactuca sativa var. Carrascoy (lettuce) assessed as inhibition of seed germination at 50 ug/cm2 after 96 hr. The series is classed as functional, organism-based.
For series [11], the system named is Lactuca sativa. Briefly: Phytotoxicity against Lactuca sativa var. Carrascoy (lettuce) assessed as inhibition of seed germination at 50 ug/cm2 after 72 hr. The series is classed as functional, organism-based.
For series [12], the system named is Lactuca sativa. Briefly: Phytotoxicity against Lactuca sativa var. Carrascoy (lettuce) assessed as inhibition of seed germination at 50 ug/cm2 up to 144 hr. The series is classed as functional, organism-based.

As to `C/C=C1/C[C@@H](C)[C@](O)(CO)C(=O)OCC2=CCN3CC[C@@H](OC1=O)[C@@H]23` (stereo in doubt; 7) [RETRORSINE], in series [1], the EC50 is more than 100 µg/mL.
For `C/C=C1\C[C@@H](C)[C@](O)(CO)C(=O)OCC2=CCN3CC[C@@H](OC1=O)[C@@H]23` (stereo in doubt; 7) [RETRORSINE], the Activity in the series with Spodoptera littoralis [2] turned out to be 90%; in the series with Spodoptera littoralis [3], 88%; with Rhopalosiphum padi, 46%; in the series with Myzus persicae, 44%. The EC50 (in series [4]; in the series on Spodoptera littoralis [5]) was more than 50 microg/cm2 throughout.
Turning to `C/C=C1/C[C@@H](C)[C@@](C)(OC(C)=O)C(=O)OC/C2=C/CN(C)CC[C@@H](OC1=O)C2=O` [ACETYLSENKIRKINE], the Activity in the series with Spodoptera littoralis [2] came out at 100%; in the series on Spodoptera littoralis [3] it was 88%; with Rhopalosiphum padi, 42%; in the series with Myzus persicae, 35%. Also, the EC50 (in series [4]; in the series on Spodoptera littoralis [5]) was more than 50 microg/cm2 each time. The inhibition at 50 µg/cm2 in the series on Lactuca sativa [6] was less than 50%. The inhibition entry in the series on Lactuca sativa [7] and in the series with Lactuca sativa [8] was “Active” each time.
As for `C/C=C1\C[C@@H](C)[C@@](C)(O)C(=O)OCC2=CCN3CC[C@@H](OC1=O)[C@@H]23` [INTEGERRIMINE], the EC50 is more than 100 µg/mL in series [9], 3.4 microg/cm2 in series [4], more than 100 microg/cm2 in the series with Spodoptera littoralis [5] and more than 100 µg/mL in [1]. The Activity with Spodoptera littoralis [2] stood at 89%; with Spodoptera littoralis [3], 88%; with Rhopalosiphum padi, 43%; in the series with Myzus persicae, 57%. In addition, in the series with Lactuca sativa [6], the inhibition at 50 µg/cm2 is less than 50%.
Regarding `C/C=C(/C)C(=O)O[C@@H]1CCN2CC=C(COC(=O)[C@@](O)([C@H](C)O)C(C)(C)O)[C@H]12` [ECHIMIDINE], the Activity is recorded as 118% in the series on Spodoptera littoralis [2], 165% with Spodoptera littoralis [3], 36% with Rhopalosiphum padi and 40% in the series on Myzus persicae. For the same molecule, the EC50 in series [4] was 1.4 microg/cm2; with Spodoptera littoralis [5], more than 50 microg/cm2.
Consider `C/C=C(/C)C(=O)O[C@@H]1CC[N+]2([O-])CC=C(COC(=O)[C@@](O)([C@H](C)O)C(C)(C)O)[C@H]12` (stereo not given in full) [ECHIMIDINE N-OXIDE], for which the Activity with Spodoptera littoralis [2] came to 102%; in the series with Spodoptera littoralis [3], 113%; with Rhopalosiphum padi, 43%; with Myzus persicae, 40%. Also, the EC50 (in series [4]; in the series with Spodoptera littoralis [5]) was more than 50 microg/cm2 each time.
On to `C=C1C/C(=C\C)C(=O)O[C@@H]2CCN3CC=C(COC(=O)[C@]1(C)O)[C@H]23` [SPARTIOIDINE], for which the EC50 in series [9] is more than 100 µg/mL; in series [4], 4.8 microg/cm2; with Spodoptera littoralis [5] it was 0.2 microg/cm2; in series [1], more than 100 µg/mL. Moreover, the Activity in the series with Spodoptera littoralis [2] was 90%; in the series on Spodoptera littoralis [3], 97%; with Rhopalosiphum padi, 42%; with Myzus persicae it was 35%. Moreover, the inhibition at 50 µg/cm2 in the series on Lactuca sativa [6] was less than 50%.
As to `C/C=C1/C[C@@]2(CO)O[C@@]2(C)C(=O)OCC2=CCN3CC[C@@H](OC1=O)[C@@H]23` [ERUCIFOLINE], the Activity with Spodoptera littoralis [2] was 106%; in the series with Spodoptera littoralis [3], 102%; in the series with Rhopalosiphum padi, 43%; in the series with Myzus persicae, 31%. For the same molecule, the EC50 (in [4]; in the series on Spodoptera littoralis [5]) was more than 50 microg/cm2 throughout. The inhibition at 50 µg/cm2 with Lactuca sativa [6] is less than 50%. Also, the inhibition entry in the series on Lactuca sativa [8] is “Active”.
Turning to `C=C1C(=O)O[C@@H]2CCN3CC=C(COC(=O)[C@](C)(O)[C@H](C)[C@H]1C)[C@H]23`, the EC50 is more than 100 µg/mL in [9], more than 50 microg/cm2 in series [4], more than 50 microg/cm2 in the series with Spodoptera littoralis [5] and 13.2 µg/mL (≈ 39.4 µM) in series [1]. For the same molecule, the values for the Activity in the series on Spodoptera littoralis [2] and in the series with Spodoptera littoralis [3] were 90% and 98%, respectively. Further, the inhibition at 50 µg/cm2 with Lactuca sativa [6] is less than 50%.
As for `C/C=C1\C[C@@H](C)[C@](O)(COC(C)=O)C(=O)OCC2=CCN3CC[C@@H](OC1=O)[C@@H]23` [ACETYLUSARAMINE], the EC50 in [9] and in series [1] was more than 100 µg/mL throughout. Moreover, the Activity is 60% in the series with Spodoptera littoralis [2], 106% in the series on Spodoptera littoralis [3] and 40% with Myzus persicae. Further, in the series on Lactuca sativa [6], the inhibition at 50 µg/cm2 is less than 50%. In the series on Lactuca sativa [8], the inhibition result was “Active”.
In the case of `C/C=C1\C[C@@H](C)[C@](O)(CO)C(=O)OCC2=CCN3CC[C@@H](OC1=O)[C@@H]23` (stereo in doubt; 8) [RETRORSINE], the EC50 in series [9] and in [1] was more than 100 µg/mL throughout. Moreover, the Activity came out at 102% in the series with Spodoptera littoralis [2], 92% in the series on Spodoptera littoralis [3], 40% in the series with Rhopalosiphum padi and 30% in the series with Myzus persicae. Also, the inhibition at 50 µg/cm2 in the series with Lactuca sativa [6] was less than 50%.
Regarding `C=C1C/C(=C/C)C(=O)O[C@@H]2CCN3CC=C(COC(=O)[C@]1(C)O)[C@H]23` [SENECIPHYLLINE], the EC50 in series [9] was more than 100 µg/mL; in series [4] it was 1.7 microg/cm2; with Spodoptera littoralis [5], 50 microg/cm2; in [1], more than 100 µg/mL. Further, the Activity is 87% with Spodoptera littoralis [2], 82% in the series on Spodoptera littoralis [3], 42% in the series on Rhopalosiphum padi and 50% in the series with Myzus persicae. Further, the inhibition at 50 µg/cm2 with Lactuca sativa [6] is less than 50%.
For the molecule `C/C=C1\C[C@@H](C)[C@@](C)(O)C(=O)OC/C2=C/CN(C)CC[C@@H](OC1=O)C2=O` [SENKIRKINE], the Activity with Spodoptera littoralis [2] stood at 116%; with Spodoptera littoralis [3], 105%; in the series on Rhopalosiphum padi it was 53%; in the series on Myzus persicae, 35%. Further, the EC50 (in series [4]; in the series on Spodoptera littoralis [5]) was more than 50 microg/cm2 each time. Also, the inhibition at 50 µg/cm2 in the series with Lactuca sativa [6] was less than 50%. Besides, the inhibition result in the series with Lactuca sativa [10], in the series on Lactuca sativa [11], in the series with Lactuca sativa [7] and with Lactuca sativa [8] was “Active” each time.
Turning to `C/C=C1\C[C@@H](C)[C@](O)(CO)C(=O)OCC2=CCN3CC[C@@H](OC1=O)[C@@H]23` (stereo in doubt; 8), the inhibition entry in the series on Lactuca sativa [8] was “Active”.
As to `C/C=C1/C[C@@H](C)[C@@](C)(O)C(=O)OCC2=CCN3CC[C@@H](OC1=O)[C@@H]23` [SENECIONINE], the EC50 in [9] is more than 100 µg/mL; in series [4], 1.3 microg/cm2; with Spodoptera littoralis [5], more than 50 microg/cm2; in series [1], more than 100 µg/mL. In addition, the Activity in the series with Spodoptera littoralis [2] was 84%; in the series with Spodoptera littoralis [3], 84%; in the series on Rhopalosiphum padi, 40%; with Myzus persicae, 40%. Also, in the series on Lactuca sativa [6], the inhibition at 50 µg/cm2 is less than 50%.
Turning to `C[C@H]1C(=O)O[C@@H]2CCN3CC=C(COC(=O)[C@](C)(O)[C@]1(C)O)[C@H]23` [MONOCROTALINE], the EC50 in series [9] was more than 100 µg/mL; in series [4] it was more than 50 microg/cm2; in the series on Spodoptera littoralis [5], more than 50 microg/cm2; in [1] it was more than 100 µg/mL. The Activity is given as 47% in the series with Spodoptera littoralis [2], 98% in the series with Spodoptera littoralis [3], 37% with Rhopalosiphum padi and 49% with Myzus persicae. The inhibition at 50 µg/cm2 in the series on Lactuca sativa [6] is less than 50%. Moreover, the inhibition result with Lactuca sativa [12], in the series on Lactuca sativa [10], in the series on Lactuca sativa [11], in the series on Lactuca sativa [7] and with Lactuca sativa [8] was “Active” in each case.
`C/C=C1\C[C@@H](C)[C@](O)(CO)C(=O)OCC2=CCN3CC[C@@H](OC1=O)[C@@H]23` (stereo in doubt; 7): in the series with Lactuca sativa [8], the inhibition result was “Active”.

For orientation: inhibition means the change of the read-out against control, counted positive when it falls.
